How the values were obtained:
Assay type in all cases: biochemical
soybean peroxidase [1] = biological target: T1, soybean peroxidase (Glycine max, UniProt O22443); assay: Demethylation (oxidation) of methoxybenzenes by soybean peroxidase, absorbance of quinone products; conditions: for dA per minute (289 nm) / dA per minute (286 nm) / dA per minute (250 nm) / dA per minute (310 nm): pH 2
T1 construct: secreted heme glycoprotein, reported 37 kDa
Protocol: 0.1 ml soybean peroxidase (120 purpurogallin units/ml) stock solution was added to 3 ml veratryl alcohol solution (1 g veratryl alcohol in 750 ml water) and vortexed in a test tube. 20 μl peroxide stock solution was added, mixed and the solution poured into a 1 cm path, 4 ml quartz cuvette. Using a Shimadzu UV-160 double beam recording spectophotometer, the change in absorbance of the sample compared to a reference cuvette containing 3 ml veratryl alcohol solution only was monitored every minute by scanning wavelengths from 500 to 200 nm. The peak wavelength of 308 nm was identified as veratryl aldehyde and was used for further monitoring. The kinetics of the reaction were determined from the linear portion of the increase in absorbance.
Using assay methods described in Example 15, three methoxybenzenes were tested for oxidation by soybean peroxidase (SBP). These compounds were: 1,4-Dimethoxybenzene (DMB), 1,2,3-Trimethoxybenzene (TMB) and 1,3,5-Trimethoxybenzene (TMB). Stock solutions were prepared by heating 1 g (0.5g 1,3,5-TMB) in 750 ml water to 60 deg C on a stirring hot plate, allowing the solution to cool to room temperature and adjusting the pH to 2 with HCl. Assays were performed as described in Example 1. Initially, a scan of wavelengths from 500 to 200 nm every minute was done during each substrate oxidation to find suitable wavelengths to monitor for the corresponding quinone products.
For example, a comparison of the rates of oxidation of 1,4-dimethoxybenzene at pH 2 where the pH was adjusted with HCl in one case and with HNO3 in a second case is shown in Table 11.

soybean peroxidase [2] = biological target: T1, soybean peroxidase; assay: Oxidation of methyl p-tolyl sulfide to sulfoxide and sulfone by soybean peroxidase; conditions: for Absorbance Units at 308 nm: pH 2 (conversion to sulfone)
Protocol: Methyl p-tolyl sulfide (MTS), and the enantiomeric oxidation products (R)-(+)-methyl tolyl sulfoxide (MTSO) and (S)-(-)-methyl tolyl sulfoxide, were purchased from Aldrich (Milwaukee, Wis). A stock solution of MTS was prepared by adding 1 g MTS to 750 ml water and heating at 60° C. for 15 min. A warm stock solution was used for all assays to maintain the substrate in solution. […] At pH 2 these peaks shift to 274 and 311 nm, respectively.
Assays with MTS were done with 120 ppu SBP and 1 mM H2 O2.
The effect of pH on the oxidation of MTS was studied to optimize the reaction. Buffers were used at the indicated pH at 25 mM concentration.
The effect of temperature on aromatic sulfide oxidation was investigated at pH 3.5 using MTS. Conditions were 120 ppu SBP, 25 mM Glycine, 2 mM MTS, 1 mM H2 O2.

soybean peroxidase [3] = biological target: T1, soybean peroxidase; assay: Oxygen-mediated hydroxylation of tyrosine by soybean peroxidase with dihydroxyfumaric acid, loss of DHF absorbance
Protocol: Tyrosine, 0.2 g was added to 150 ml water and HCl was added until the tyrosine dissolved at about pH 3. Dihydroxyfumaric acid (DHF), 0.44 g was added to 100 ml water and dilute (1%) sodium hydroxide was added until the acid dissolved at about pH 3.
Hydroxylation of tyrosine was achieved by mixing 2 ml tyrosine solution, 1 ml 0.1M buffer selected from a range of pH 1-13, 0.1 ml soybean peroxidase at 10 mg/ml and last, adding 0.1 ml DHF stock solution. The reference curvette contained the same mixture of tyrosine, buffer and DHF stock solutions. No hydrogen peroxide was used in these reaction. Dissolved oxygen from air served as the source of oxidant. Peak wavelength corresponding to DHF, determined by DHF absorbance in the solution, was monitored for loss in absorbance, indicating consumption of the reducing agent and hydroxylation of the phenol. Oxidation was followed by monitoring wavelengths from 500 to 200 nm at zero time and 1 minute of reaction. The absorbance difference at the wavelength corresponding to loss of DHF was recorded.

T1 sequence (O22443 27-332): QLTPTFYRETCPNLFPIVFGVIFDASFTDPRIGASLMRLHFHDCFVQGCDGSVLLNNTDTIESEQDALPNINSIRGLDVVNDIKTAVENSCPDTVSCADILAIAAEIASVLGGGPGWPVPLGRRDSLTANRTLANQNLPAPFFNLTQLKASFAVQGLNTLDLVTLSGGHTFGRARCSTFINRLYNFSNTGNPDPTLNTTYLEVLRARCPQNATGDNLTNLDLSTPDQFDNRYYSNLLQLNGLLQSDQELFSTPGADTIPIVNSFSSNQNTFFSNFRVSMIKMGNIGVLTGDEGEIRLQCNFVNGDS

## COc1cccc(OC)c1OC [1,2,3-TMB, 1,2,3-Trimethoxybenzene]
Soybean peroxidase [1]; 25 °C
  dA per minute (289 nm): 0.0147
Soybean peroxidase [1]; 35 °C
  dA per minute (289 nm): 0.0272
Soybean peroxidase [1]; 45 °C
  dA per minute (289 nm): 0.0893
Soybean peroxidase [1]; 55 °C
  dA per minute (289 nm): 1.1161
Soybean peroxidase [1]; 65 °C
  dA per minute (289 nm): 0.0301
Soybean peroxidase [1]; 75 °C
  dA per minute (289 nm): 0.0142

## COc1cc(OC)cc(OC)c1 [1,3,5-TMB, 1,3,5-Trimethoxybenzene]
Soybean peroxidase [1]; 35 °C
  dA per minute (286 nm): 0.0282
Soybean peroxidase [1]; 45 °C
  dA per minute (286 nm): 0.474
Soybean peroxidase [1]; 55 °C
  dA per minute (286 nm): 0.097
Soybean peroxidase [1]; 65 °C
  dA per minute (286 nm): 0.1724
Soybean peroxidase [1]; 75 °C
  dA per minute (286 nm): 0.0262

## COc1ccc(OC)cc1 [1,4-DMB, 1,4-Dimethoxybenzene]
Soybean peroxidase [1]; 25 °C
  dA per minute (250 nm): 1.0134
  dA per minute (310 nm): 0.3566
Soybean peroxidase [1]; 35 °C
  dA per minute (250 nm): 1.1306
  dA per minute (310 nm): 0.3942
Soybean peroxidase [1]; 45 °C
  dA per minute (250 nm): 1.817
  dA per minute (310 nm): 0.745
Soybean peroxidase [1]; 55 °C
  dA per minute (250 nm): 2.73
  dA per minute (310 nm): 1.088
Soybean peroxidase [1]; 65 °C
  dA per minute (250 nm): 2.99
  dA per minute (310 nm): 0.437
Soybean peroxidase [1]; 75 °C
  dA per minute (250 nm): 0.883
  dA per minute (310 nm): 0.129
Soybean peroxidase [1]; 85 °C
  dA per minute (250 nm): 0.0619
  dA per minute (310 nm): 0.0237
Soybean peroxidase [1]; 95 °C
  dA per minute (250 nm): 0.0777
  dA per minute (310 nm): 0.0296
Soybean peroxidase [1]; pH 2 adjusted with HCl
  dA 250 nm per min: 1.275
  dA 310 nm per min: 0.3273
Soybean peroxidase [1]; pH 2 adjusted with HNO3
  dA 250 nm per min: 0.7202
  dA 310 nm per min: 0.2934

## CSc1ccc(C)cc1 [MTS, Methyl p-tolyl sulfide]
Soybean peroxidase [2]
  pH optimum of oxidation of MTS to MTSO: 3.5
Soybean peroxidase [2]; 25 °C, pH 3.5, 120 ppu SBP, 25 mM Glycine, 2 mM MTS, 1 mM H2O2
  dA per min at 279 nm: 0.0607
Soybean peroxidase [2]; 35 °C, pH 3.5, 120 ppu SBP, 25 mM Glycine, 2 mM MTS, 1 mM H2O2
  dA per min at 279 nm: 0.0824
Soybean peroxidase [2]; 45 °C, pH 3.5, 120 ppu SBP, 25 mM Glycine, 2 mM MTS, 1 mM H2O2
  dA per min at 279 nm: 0.1012
Soybean peroxidase [2]; 55 °C, pH 3.5, 120 ppu SBP, 25 mM Glycine, 2 mM MTS, 1 mM H2O2
  dA per min at 279 nm: 0.1735
Soybean peroxidase [2]; 65 °C, pH 3.5, 120 ppu SBP, 25 mM Glycine, 2 mM MTS, 1 mM H2O2
  dA per min at 279 nm: 0.2563
Soybean peroxidase [2]; 75 °C, pH 3.5, 120 ppu SBP, 25 mM Glycine, 2 mM MTS, 1 mM H2O2
  dA per min at 279 nm: 0.1065
Soybean peroxidase [2]; 85 °C, pH 3.5, 120 ppu SBP, 25 mM Glycine, 2 mM MTS, 1 mM H2O2
  dA per min at 279 nm: 0.0908
Soybean peroxidase [2]; pH 1, 25 mM buffer
  dA per min at 279 nm: 0.0348
Soybean peroxidase [2]; pH 2, 25 mM buffer
  dA per min at 279 nm: -0.1376
Soybean peroxidase [2]; pH 3, 25 mM buffer
  dA per min at 279 nm: 0.1042
Soybean peroxidase [2]; pH 3.5, 25 mM buffer
  dA per min at 279 nm: 0.218
Soybean peroxidase [2]; pH 4, 25 mM buffer
  dA per min at 279 nm: 0.0893
Soybean peroxidase [2]; pH 4.5, 25 mM buffer
  dA per min at 279 nm: 0.0017
Soybean peroxidase [2]; time of reaction 0 min
  Absorbance Units at 308 nm: 0.21 Absorbance Units
Soybean peroxidase [2]; time of reaction 1 min
  Absorbance Units at 308 nm: 0.293 Absorbance Units
Soybean peroxidase [2]; time of reaction 2 min
  Absorbance Units at 308 nm: 0.35 Absorbance Units
Soybean peroxidase [2]; time of reaction 3 min
  Absorbance Units at 308 nm: 0.381 Absorbance Units
Soybean peroxidase [2]; time of reaction 4 min
  Absorbance Units at 308 nm: 0.401 Absorbance Units

## N[C@@H](Cc1ccc(O)cc1)C(=O)O [tyrosine, Tyrosine]
Soybean peroxidase [3]; pH 1, λ 310 nm, loss of DHF absorbance
  dA per min: 0
Soybean peroxidase [3]; pH 2, λ 315 nm, loss of DHF absorbance
  dA per min: 0.012
Soybean peroxidase [3]; pH 3, λ 321 nm, loss of DHF absorbance
  dA per min: 0.726
Soybean peroxidase [3]; pH 3.5, λ 318 nm, loss of DHF absorbance
  dA per min: 0.886
Soybean peroxidase [3]; pH 4, λ 319 nm, loss of DHF absorbance
  dA per min: 0.065
Soybean peroxidase [3]; pH 4.5, λ 320 nm, loss of DHF absorbance
  dA per min: 0.391
Soybean peroxidase [3]; pH 5, λ 303 nm, loss of DHF absorbance
  dA per min: 1.897
Soybean peroxidase [3]; pH 5.5, λ 302 nm, loss of DHF absorbance
  dA per min: 0.971
Soybean peroxidase [3]; pH 6, λ 302 nm, loss of DHF absorbance
  dA per min: 2.226
Soybean peroxidase [3]; pH 6.5, λ 302 nm, loss of DHF absorbance
  dA per min: 2.134
Soybean peroxidase [3]; pH 7, interference from Tris buffer
  dA per min: 0
Soybean peroxidase [3]; pH 7.5, interference from Tris buffer
  dA per min: 0
Soybean peroxidase [3]; pH 8, interference from Tris buffer
  dA per min: 0
Soybean peroxidase [3]; pH 8.5, λ 305 nm, loss of DHF absorbance
  dA per min: 1.098
Soybean peroxidase [3]; pH 9, λ 304 nm, loss of DHF absorbance
  dA per min: 1.705
Soybean peroxidase [3]; pH 9.5, λ 302 nm, loss of DHF absorbance
  dA per min: 1.66
Soybean peroxidase [3]; pH 10, λ 302 nm, loss of DHF absorbance
  dA per min: 0.768
Soybean peroxidase [3]; pH 10.5, λ 302 nm, loss of DHF absorbance
  dA per min: 1.372
Soybean peroxidase [3]; pH 11, λ 302 nm, loss of DHF absorbance
  dA per min: 1.988
Soybean peroxidase [3]; pH 11.5, λ 305 nm, loss of DHF absorbance
  dA per min: 0.075
Soybean peroxidase [3]; pH 12, λ 305 nm, loss of DHF absorbance
  dA per min: 0.069
Soybean peroxidase [3]; pH 13, λ 305 nm, loss of DHF absorbance
  dA per min: 0
